Data taken from patent US11058680B2, “Combinations of opioid/TLR4 antagonists and acetaminophen for use in the treatment of emotional pain and insomnia” (Allodynic Threapeutics, LLC, priority 2016, dated 2021).

Tested on: migraine attacks
Experiment: Naltrexone/acetaminophen open-label pilot study, acute treatment of migraine: headache pain (4-point scale; relief score ≤1, pain-free score = 0), associated symptoms, additional meds
Assay type: in vivo, human
Procedure: Sixteen unique patients were enrolled in an open phase pilot study for the acute treatment of migraine attacks, insomnia, and emotional pain. Of the sixteen patients, eleven were evaluated for one migraine attack, one for two attacks, two for four attacks, one for six attacks, and one for fourteen attacks. A total of forty-one […] treatments were evaluated. Patients received a single dose of one of the following treatment options:
The majority of the patients remained in the clinic for observation for 2 hours after dosing. They completed headache diary assessments immediately before and after dosing at time points: 7, 15, and 30 minutes; and 1, 1.5, 2, 3, 6, 12, 24, and 48 hours. Headache pain was assessed on a 4-point scale (0=none; 1=mild; 2=moderate; 3=severe). The assessment of photophobia, phonophobia, nausea, and neck/shoulder pain was assessed as present or absent. The assessment of emotional pain was recorded on a 4-point scale (0=none, 1=mild, 2=moderate, 3=severe). The assessment of difficulty sleeping or falling asleep (insomnia) was assessed on a 4-point scale (0=none, 1=mild, 2=moderate, 3=severe) at baseline, for the night before treatment and for the following nights at 24, and 48 hours. Patients recorded side effects severity at each time point. Patients recorded the time of the first rescue medication dose and all additional headache medications used within 48 hours. Patients were required to stay awake to record their assessments in the first 2 hours, sleeping was permitted thereafter. While asleep, assessments were completed according to patients' best estimation. For data analysis, it was assumed that a migraine attack is a unique patient. Patients were asked to specify (yes or no answer) to whether they experienced emotional pain symptoms such as: hurt feelings, sadness, fear, or anger. Patients who replied positively to having emotional pain were asked to specify the cause into one of the following options: relationship, work/school, money/debt, health, or loss/grief.

[1] = 7 min, NTX/APAP 2.25 mg/325 mg, NTX 2.25 mg
[2] = 7 min, NTX/APAP 3.25 mg/325 mg, NTX 3.25 mg
[3] = 7 min, NTX/APAP 5 mg/325 mg, NTX 5 mg
[4] = 7 min, naltrexone/acetaminophen 2.25 mg/325 mg (N=15), naltrexone 2.25 mg (N=3)
[5] = 15 min, NTX/APAP 2.25 mg/325 mg, NTX 2.25 mg
[6] = 15 min, NTX/APAP 3.25 mg/325 mg, NTX 3.25 mg
[7] = 15 min, NTX/APAP 5 mg/325 mg, NTX 5 mg
[8] = 15 min, NTX/APAP […]325 mg, NTX 1.5 mg
[9] = 15 min, naltrexone/acetaminophen 2.25 mg/325 mg (N=21), naltrexone 2.25 mg (N=9)
[10] = 30 min, NTX/APAP 2.25 mg/325 mg, NTX 2.25 mg
[11] = 30 min, NTX/APAP 3.25 mg/325 mg, NTX 3.25 mg
[12] = 30 min, NTX/APAP 5 mg/325 mg, NTX 5 mg
[13] = 30 min, NTX/APAP […]325 mg, NTX 1.5 mg
[14] = 30 min, naltrexone/acetaminophen 2.25 mg/325 mg (N=21), naltrexone 2.25 mg (N=9)
[15] = 1 h, NTX/APAP 2.25 mg/325 mg, NTX 2.25 mg
[16] = 1 h, NTX/APAP 3.25 mg/325 mg, NTX 3.25 mg

O=C1CC[C@@]2(O)[C@H]3Cc4ccc(O)c5c4[C@@]2(CCN3CC2CC2)[C@H]1O5 [naltrexone]
2 (67) n (%): Neck/shoulder pain-free [1] | Phonophobia-free [1]
1 (100) n (%): Neck/shoulder pain-free [12] | Phonophobia-free [12] | Photophobia-free [12]
10 (63) n (%): Headache pain-relief (30 min, all doses combined)
4 (44) n (%): Headache pain-relief [5] | Neck/shoulder pain-free [5] | Phonophobia-free [5] | Headache pain-free [15]
2 (22) n (%): Headache pain-free [10]
7 (44) n (%): Headache pain-relief (15 min, all doses combined)
2 (66) n (%): Headache pain-relief [11] | Nausea-free [11] | Headache pain-relief [13] | Nausea-free [13]
8 (88) n (%): Nausea-free [10] | Headache pain-relief [15] | Phonophobia-free [15]
22%: Headache pain-free [14]
6 (67) n (%): Most bothersome symptom free [10] | Neck/shoulder pain-free [10]
78%: Headache pain-relief [14]
3 (33) n (%): Nausea-free [5] | Photophobia-free [5]
2 n (%): Nausea-free [2] | Headache pain-relief [6] | Nausea-free [8]
2 (33) n (%): Nausea-free (7 min, all doses combined) | Neck/shoulder pain-free (7 min, all doses combined) | Phonophobia-free (7 min, all doses combined)
3 (100) n (%): Headache pain-free [16]
67%: Most bothersome symptom-free [14]
6 (38) n (%): Most bothersome symptom free (30 min, all doses combined)
7 (78) n (%): Headache pain-relief [10] | Phonophobia-free [10]
44%: Headache pain-relief [9]
0%: Headache pain-free [4] | Most bothersome symptom-free [4] | Headache pain-free [9] | Headache pain-free (30 min, naltrexone 1.5 mg (N=3)) | Headache pain-free (30 min, naltrexone/acetaminophen 3.25 mg/325 mg (N=3), naltrexone 3.25 mg (N=3))
3 n (%): Nausea-free [6]
0 (0): Additional meds taken [1] | Additional meds taken (7 min, all doses combined) | Additional meds taken [5] | Additional meds taken (15 min, all doses combined) | Additional meds taken [11] | Additional meds taken [12] | Additional meds taken [13] | Additional meds taken (30 min, all doses combined) | Additional meds taken [15]
2 (13) n (%): Headache pain-free (30 min, all doses combined)
1 n (%): Photophobia-free [2] | Photophobia-free [6] | Headache pain-relief [8] | Neck/shoulder pain-free [8]
7 (77) n (%): Most bothersome symptom free [15]
6 (66) n (%): Neck/shoulder pain-free [15] | Photophobia-free [15]
1: Additional meds taken [7]
0: Additional meds taken [2] | Additional meds taken [3] | Additional meds taken [6] | Additional meds taken [8] | Additional meds taken [10] | Additional meds taken [16]
1 (33) n (%): Photophobia-free [11] | Neck/shoulder pain-free [13]
0 n (%): Headache pain-free [2] | Headache pain-relief [2] | Most bothersome symptom free [2] | Neck/shoulder pain-free [2] | Phonophobia-free [2] | Headache pain-free [3] | Headache pain-relief [3] | Most bothersome symptom free [3] | Nausea-free [3] | Neck/shoulder pain-free [3] | Phonophobia-free [3] | Photophobia-free [3] | Headache pain-free [6] | Most bothersome symptom free [6] | Neck/shoulder pain-free [6] | Phonophobia-free [6] | Headache pain-free [7] | Headache pain-relief [7] | Most bothersome symptom free [7] | Nausea-free [7] | Neck/shoulder pain-free [7] | Phonophobia-free [7] | Photophobia-free [7] | Headache pain-free [8] | Most bothersome symptom free [8] | Phonophobia-free [8] | Photophobia-free [8]
9 (100) n (%): Nausea-free [15]
5 (31) n (%): Neck/shoulder pain-free (15 min, all doses combined)
1 (16) n (%): Photophobia-free (7 min, all doses combined)
7 (48) n (%): Photophobia-free (30 min, all doses combined)
1 (6) n (%): Most bothersome symptom free (15 min, all doses combined)
11%: Most bothersome symptom-free [9]
8 (50) n (%): Nausea-free (15 min, all doses combined) | Neck/shoulder pain-free (30 min, all doses combined) | Phonophobia-free (30 min, all doses combined)
5 (56) n (%): Photophobia-free [10]
12 (75) n (%): Nausea-free (30 min, all doses combined)
4 (25) n (%): Phonophobia-free (15 min, all doses combined) | Photophobia-free (15 min, all doses combined)
1 (11) n (%): Most bothersome symptom free [5]
0 (0) n (%): Headache pain-free [1] | Headache pain-relief [1] | Most bothersome symptom free [1] | Nausea-free [1] | Photophobia-free [1] | Headache pain-free (7 min, all doses combined) | Headache pain-relief (7 min, all doses combined) | Most bothersome symptom free (7 min, all doses combined) | Headache pain-free [5] | Headache pain-free (15 min, all doses combined) | Headache pain-free [11] | Most bothersome symptom free [11] | Neck/shoulder pain-free [11] | Phonophobia-free [11] | Headache pain-free [12] | Headache pain-relief [12] | Most bothersome symptom free [12] | Nausea-free [12] | Headache pain-free [13] | Most bothersome symptom free [13] | Phonophobia-free [13] | Photophobia-free [13]
